# Laboratory results from patent publication US9725416B2, “Ethynyl derivatives” (Hoffmann-La Roche Inc., priority 2014, dated 2017).
# Columns and labels:
# [1] = test system: 6-OHDA rodent model of PD; details: cited from earlier work
# [2] = test system: mice treated with MPTP; details: cited from earlier work
# [3] = test system: mice; details: reported by Addex 2010; cited from earlier work
# [4] = test system: rats; details: cited from earlier work
# [5] = test system: mice; details: reported by Addex 2010; cited from earlier work; remark: listed apart in the source
# [6] = biological target: T1, human mGlu4 receptor (Homo sapiens, UniProt Q14833); assay: Ca2+ mobilization in vitro assay on recombinant human mGlu4 expressed in HEK293 cells (mGlu4 PAM); format: cell-based; details: for Emax: HEK293, maximal response in % of the maximal stimulatory effect obtained with saturating concentrations of L-AP4, read-out: Eff. (%); for EC50: HEK-293 cells, Ca2+ mobilization, L-AP4 added at EC20
# T1 construct: expressed in transfected cells; host or cells: HEK-293 (monoclonal, stably transfected)
# T1 sequence (Q14833 33-912): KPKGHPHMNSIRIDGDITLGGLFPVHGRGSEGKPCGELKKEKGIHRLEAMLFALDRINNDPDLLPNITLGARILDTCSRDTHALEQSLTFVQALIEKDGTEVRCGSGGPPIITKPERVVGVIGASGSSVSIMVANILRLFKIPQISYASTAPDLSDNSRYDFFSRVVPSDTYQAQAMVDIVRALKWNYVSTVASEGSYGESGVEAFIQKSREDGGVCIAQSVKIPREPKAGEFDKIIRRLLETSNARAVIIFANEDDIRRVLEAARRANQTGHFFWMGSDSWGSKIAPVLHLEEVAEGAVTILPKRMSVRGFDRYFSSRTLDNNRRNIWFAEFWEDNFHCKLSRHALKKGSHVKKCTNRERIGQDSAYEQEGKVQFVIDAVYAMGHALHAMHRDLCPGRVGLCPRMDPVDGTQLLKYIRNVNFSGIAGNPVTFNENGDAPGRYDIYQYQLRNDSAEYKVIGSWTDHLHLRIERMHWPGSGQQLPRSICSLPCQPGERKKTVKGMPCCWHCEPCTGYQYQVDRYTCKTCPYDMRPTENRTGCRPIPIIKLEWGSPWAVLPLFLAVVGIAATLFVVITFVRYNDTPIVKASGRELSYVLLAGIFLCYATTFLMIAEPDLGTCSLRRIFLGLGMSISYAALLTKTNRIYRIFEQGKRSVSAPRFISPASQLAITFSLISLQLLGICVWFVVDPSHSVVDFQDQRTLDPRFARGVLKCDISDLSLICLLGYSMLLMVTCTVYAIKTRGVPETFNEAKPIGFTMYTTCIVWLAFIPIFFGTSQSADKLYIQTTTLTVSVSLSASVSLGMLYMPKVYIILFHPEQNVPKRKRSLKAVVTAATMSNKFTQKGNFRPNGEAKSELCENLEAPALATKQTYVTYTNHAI
# Summary of the method: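 HEK293 line stably expressing human mGlu4 (low expression, low constitutive activity), Fluo-4AM loaded; compounds (11 half-log dilutions) preincubated 10-30 min at 37 °C, then L-AP4 added at its EC20, determined daily. EC50 from peak fluorescence minus basal, normalized to saturating L-AP4 maximum, four-parameter fit.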
Emax [6],EC50 [6],Compound,other results
178%,50 nM,"CN1C(=O)N(c2c(F)cc(C#Cc3cccnc3)cc2F)C(=O)CC1(C)c1ccccc1 (stereo in doubt) [Example 19, (6S)-3-[2,6-Difluoro-4-[2-(3-pyridyl)ethynyl]phenyl]-1,6-dimethyl-6-phenyl-hexahydropyrimidine-2,4-dione]",
128%,169 nM,"CC(C)N1CCN2C(=O)N(c3c(F)cc(C#Cc4ccccc4)cc3F)C(=O)CC2(C)C1=O (racemic) [Example 36, (9aRS)-7-[2,6-Difluoro-4-(2-phenylethynyl)phenyl]-2-isopropyl-9a-methyl-4,9-dihydro-3H-pyrazino[1,2-c]pyrimidine-1,6,8-trione]",
150%,135 nM,"CN1C(=O)N(c2c(F)cc(C#Cc3cccnc3)cc2Cl)C(=O)CC1(C)c1ccccc1 (racemic) [Example 34, (6RS)-3-[2-Chloro-6-fluoro-4-[2-(3-pyridyl)ethynyl]phenyl]-1,6-dimethyl-6-phenyl-hexahydropyrimidine-2,4-dione]",
91%,82 nM,"CN1C(=O)N(c2c(F)cc(C#Cc3cccnc3)cc2F)C(=O)CC1(c1ccccc1)C(F)(F)F (racemic) [Example 72, (6RS)-3-[2,6-Difluoro-4-[2-(3-pyridyl)ethynyl]phenyl]-1-methyl-6-phenyl-6-(trifluoromethyl)hexahydropyrimidine-2,4-dione]",
109%,42 nM,"COc1ccc([C@]2(C)CC(=O)N(c3c(F)cc(C#Cc4ccccc4)cc3F)C(=O)N2C)cn1 [Example 63, (6S)-3-[2,6-Difluoro-4-(2-phenylethynyl)phenyl]-6-(6-methoxy-3-pyridyl)-1,6-dimethyl-hexahydropyrimidine-2,4-dione]",
120%,47 nM,"COc1cc([C@]2(C)CC(=O)N(c3c(F)cc(C#Cc4ccccc4)cc3F)C(=O)N2C)ccn1 [Example 73, (6S)-3-[2,6-Difluoro-4-(2-phenylethynyl)phenyl]-6-(2-methoxy-4-pyridyl)-1,6-dimethyl-hexahydropyrimidine-2,4-dione]",
114%,43 nM,"CN1C(=O)N(c2c(F)cc(C#Cc3ccccc3)cc2F)C(=O)C[C@@]1(C)c1ccc(=O)n(C)c1 [Example 66, (6S)-3-[2,6-Difluoro-4-(2-phenylethynyl)phenyl]-1,6-dimethyl-6-(1-methyl-6-oxo-3-pyridyl)hexahydropyrimidine-2,4-dione]",
116%,42 nM,"CN1C(=O)N(c2c(F)cc(C#Cc3ccccc3)cc2F)C(=O)C[C@@]1(C)c1cc[nH]c(=O)c1 [Example 74, (6S)-3-[2,6-Difluoro-4-(2-phenylethynyl)phenyl]-1,6-dimethyl-6-(2-oxo-1H-pyridin-4-yl)hexahydropyrimidine-2,4-dione]",
99%,49 nM,"CN1C(=O)N(c2c(F)cc(C#Cc3ccccc3)cc2F)C(=O)C[C@@]1(C)c1cccnn1 [Example 58, (6S)-3-[2,6-Difluoro-4-(2-phenylethynyl)phenyl]-1,6-dimethyl-6-pyridazin-3-yl-hexahydropyrimidine-2,4-dione]",
109%,394 nM,"CN1C(=O)N(c2c(F)cc(C#Cc3cccnc3)cc2F)C(=O)CC1(C)c1ccccc1Cl (racemic) [Example 40, (6RS)-6-(2-Chlorophenyl)-3-[2,6-difluoro-4-[2-(3-pyridyl)ethynyl]phenyl]-1,6-dimethyl-hexahydropyrimidine-2,4-dione]",

# Further lines, the compound ahead of its results:
Compound,Emax [6],EC50 [6],other results
"N[C@@H](CCP(=O)(O)O)C(=O)O [L-AP4, (2S)-2-amino-4-phosphonobutanoic acid]",,,neuroprotection [1]: neuroprotective effects
"O=C(Nc1ccccc1)C12CC1/C(=N\O)c1ccccc1O2 (single isomer, unassigned; (-)) [(−)-PHCCC]",,,nigrostriatal degeneration [2]: reduced nigrostriatal degeneration
Cc1ccnc(Nc2nc(-c3cn[nH]c3)c(C)s2)n1 [ADX88178],,,"activity in EPM [3]: active; profile in rat EPM test ([4]; rat, after oral dosing): anxiolytic-like profile; activity in EPM ([4]; rats, reported by Addex 2010): active; activity in marble burying test [5]: active"
"CN1C(=O)N(c2c(F)cc(C#Cc3cccnc3)cc2F)C(=O)CC1(C)c1ccccc1 (racemic) [Example 15, (6RS)-3-[2,6-Difluoro-4-[2-(3-pyridyl)ethynyl]phenyl]-1,6-dimethyl-6-phenyl-hexahydropyrimidine-2,4-dione]",134%,100 nM,
"CN1C(=O)N(c2ccc(C#Cc3ccccc3)cc2Cl)C(=O)CC12CCC2 [Example 5, 7-[2-Chloro-4-(2-phenylethynyl)phenyl]-5-methyl-5,7-diazaspiro[3.5]nonane-6,8-dione]",93%,304 nM,
"CN1C(=O)N(c2c(F)cc(C#Cc3ccccc3)cc2F)C(=O)C2CCCC21C (stereo in doubt) [Example 14, (4aRS,7aRS)-3-[2,6-Difluoro-4-(2-phenylethynyl)phenyl]-1,7a-dimethyl-4a,5,6,7-tetrahydrocyclopenta[d]pyrimidine-2,4-dione]",119%,125 nM,
"CN1C(=O)N(c2ccc(C#Cc3ccccc3)cc2Cl)C(=O)CC12CCCCC2 [Example 3, 3-[2-Chloro-4-(2-phenylethynyl)phenyl]-1-methyl-1,3-diazaspiro[5.5]undecane-2,4-dione]",105%,245 nM,
